Here are results for four molecules from patent publication US20130316948A1, “GROWTH HORMONE RECEPTOR DEFICIENCY CAUSES A MAJOR REDUCTION IN PRO-AGING SIGNALING, CANCER AND DIABETES IN HUMANS” (UNIVERSITY OF SOUTHERN CALIFORNIA, priority 2011, published 2013).

In data set [1] the test system is pancreatic carcinoma cells. The settings on record: Mol Cancer Ther May 2009 8:1095-1105; cited from earlier work.
The subject of the next data set is HMECs. Description: LDH cytotoxicity assay after H2O2 in epithelial cells incubated in serum. The data set is classed as cell-based, human. The settings on record: 200 ng/ml IGF-I added to GHRD serum, 700 μM H2O2.
The next data set addresses human GH (Homo sapiens, UniProt P01241). Description: Slot blot of anti-huGH activity in serum from mice immunized with huGH. Format: in vivo, mouse. The settings on record: slot blot against immobilized human GH.
Data set [2] can be described thus: Body weight of mice immunized with human Growth Hormone. Format: in vivo, mouse. As to conditions: 20 male and 20 female mice, versus time. The source says: FIG. 16A provides a plot of body weight of mice immunized with human Growth Hormone (huGH) (20 male and 20 female) versus time.
This figure provides a plot of body weight of mice immunized with human Growth Hormone (huGH) (20 male and 20 female) versus time.

Data set [3] can be described thus: Short term immunization with human GH before cyclophosphamide: body weight and complete blood count. The data set is classed as in vivo, mouse. The settings on record: cyclophosphamide i.p., 300 mg/kg, CBC 7-days after CP. Here is the method:
FIG. 17A provides plots of the body weight of mice with short term immunization (STI) with human GH (half-filled arrowheads) after cyclophosphamide treatment (cyclophosphamide (CP) i.p., 300 mg/kg, indicated by the solid arrowhead) (Sham means treated with buffer and no chemo);
FIG. 17B provides a histogram of the complete blood count (CBC) 7-days after CP treatment (Data are presented as percentage of pre-chemo value);
FIG. 17A provides plots of the body weight of mice with short term immunization (STI) with human GH (half-filled arrowheads) after cyclophosphamide treatment (cyclophosphamide (CP) i.p., 300 mg/kg, indicated by solid arrowheads). FIG. 17B provides a histogram of the complete blood count (CBC) 7-days after CP treatment (Data are presented as percentage of pre-chemo value).

Another data set relates to primary glial cells. Description: 24 hour LDH release from primary glial cells under oxidative damage. Format: cell-based. Here is the method: FIG. 20 provides a plot of the 24 hour lactate dehydrogenase (LDH) release from the treatment of primary glial cells with the IGF-I inhibitor insulin-like growth factor-binding protein 1 (IGFBP1) and with insulin-like growth factor-binding protein 2 (IGFBP2). […] IGFBP1 is a strong IGF-I inhibtor. Other IGFBPs can even increase IGF-I signaling.
On the technique in general: LDH in the medium is a marker of cell lysis.

Sequence of human GH (P01241 27-217): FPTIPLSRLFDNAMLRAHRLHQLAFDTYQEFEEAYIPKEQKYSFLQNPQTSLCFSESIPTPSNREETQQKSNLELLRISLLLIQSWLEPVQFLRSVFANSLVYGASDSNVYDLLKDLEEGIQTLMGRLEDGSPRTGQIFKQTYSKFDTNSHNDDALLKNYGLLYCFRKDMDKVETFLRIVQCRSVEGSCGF

“AMG 479: fully human anti-insulin-like growth factor receptor type I monoclonal antibody”: the “Effect on pancreatic carcinoma cells” value in data set [1] is “inhibits the growth and survival of pancreatic carcinoma cells”.
On to “IGF-I: insulin like growth factor-I, added at 200 ng/ml to GHRD serum”, for which, in the data set with HMECs, the “Effect on the higher cytotoxicity seen in GHRD serum” value is on record as “completely reversed”.
As for “huGH: human Growth Hormone used to immunize mice to generate inhibitory antibodies against GH”, in the data set with human GH, the “Immunized mice whose serum showed strong anti-huGH activity” value is given as 34 out of 40. In addition, the “Body weight of immunized mice” value in data set [2] was “Lower body weight”. Moreover, in data set [3], the “Effect of immunization on chemotherapy side effects (body weight, CBC)” value is “protective effect against chemotherapy side effects”.

B1: IGFBP1: IGF-I inhibitor insulin-like growth factor-binding protein 1 (protein, UniProt P08833 26-259, looked up)
Insulin-like growth …: APWQCAPCSAEKLALCPPVSASCSEVTRSAGCGCCPMCALPLGAACGVATARCARGLSCRALPGEQQPLHALTRGQGACVQESDASAPHAAEAGSPESPESTEITEEELLDNFHLMAPSEEDHSILWDAISTYDGSKALHVTNIKKWKEPCRIELYRVVESLAKAQETSGEEISKFYLPNCNKNGFYHSRQCETSMDGEAGLCWCVYPWNGKRIPGSPEIRGDPNCQIYFNVQN
As for B1, the “Effect on oxidative damage (LDH release)” value with primary glial cells was “protects them against oxidative damage”.
